Measurements: patent publication US20260285850A1, “SUBSTITUTED OXAZOLIDINONES AND IMIDAZOLINONES AS HERBICIDES” (FMC CORPORATION, priority 2023, published 2026)

Assays:
Format in all cases: in vivo
[1] = tested on: sedge, umbrella (small-flower umbrella sedge, Cyperus difformis); assay: Test B flooded paddy test, visual plant response rating 0-100; conditions: 250 g ai/ha, Flood, applied to paddy water, evaluated after 13 days
How it was run: (§1)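 Visual evaluation after 13 days. Water-applied treatment, 3 cm flood depth held constant, plants at 2-leaf stage at treatment.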

[2] = tested on: ducksalad (Heteranthera limosa); assay: as above; conditions: 250 g ai/ha, Flood, applied to paddy water, evaluated after 13 days
How it was run: as §1

rice (Oryza sativa) = assay: as above; conditions: 250 g ai/ha, Flood, applied to paddy water, evaluated after 13 days
How it was run: as §1

[3] = tested on: barnyardgrass (Echinochloa crusgalli); assay: as above; conditions: 250 g ai/ha, Flood, applied to paddy water, evaluated after 13 days
How it was run: as §1

[4] = tested on: palmer (palmer amaranth, palmer pigweed, Amaranthus palmeri); assay: Test A postemergence application, visual injury rating 0-100
How it was run: (§2)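 Compound in a non-phytotoxic, surfactant-containing solvent is applied either as a directed soil spray before seedlings emerge or onto emerged plants 2-10 cm tall; pots hold a loam-sand blend. Plants grow 10 days under greenhouse conditions and are rated by eye against untreated controls (0 no effect, 100 complete control).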

[5] = tested on: galium (catchweed bedstraw, Galium aparine); assay: as above; conditions: Postemergence, 16 g ai/ha, greenhouse 10 days; 0 no effect, 100 complete control
How it was run: as §2

[6] = tested on: green foxtail (Setaria viridis); assay: as above
How it was run: as §2

soybean (Glycine max) [7] = assay: as above
How it was run: as §2

[8] = tested on: wheat (Triticum aestivum); assay: as above
How it was run: as §2

corn (Zea mays) [9] = assay: as above
How it was run: as §2

[10] = tested on: horseweed (Erigeron canadensis); assay: as above
How it was run: as §2

[11] = tested on: ragweed (common ragweed, Ambrosia artemisiifolia); assay: as above
How it was run: as §2

[12] = tested on: barnyardgrass (Echinochloa crus-galli); assay: as above
How it was run: as §2

[13] = tested on: oat, wild (wild oat, Avena fatua); assay: as above
How it was run: as §2

[14] = tested on: ryegrass, Italian (italian ryegrass, Lolium multiflorum); assay: as above
How it was run: as §2

[15] = tested on: blackgrass (Alopecurus myosuroides); assay: as above
How it was run: as §2

kochia (Bassia scoparia) [16] = assay: as above
How it was run: as §2

[17] = tested on: palmer (palmer amaranth, palmer pigweed, Amaranthus palmeri); assay: Test A preemergence soil spray, visual injury rating 0-100; conditions: 10 days
How it was run: as §2

[18] = tested on: green foxtail (Setaria viridis); assay: as above; conditions: 10 days
How it was run: as §2

soybean (Glycine max) [19] = assay: as above; conditions: 10 days
How it was run: as §2

[20] = tested on: wheat (Triticum aestivum); assay: as above; conditions: 10 days
How it was run: as §2

corn (Zea mays) [21] = assay: as above; conditions: 10 days
How it was run: as §2

[22] = tested on: ragweed (common ragweed, Ambrosia artemisiifolia); assay: as above; conditions: 10 days
How it was run: as §2

[23] = tested on: barnyardgrass (Echinochloa crus-galli); assay: as above; conditions: 10 days
How it was run: as §2

[24] = tested on: oat, wild (wild oat, Avena fatua); assay: as above; conditions: 10 days
How it was run: as §2

[25] = tested on: ryegrass, Italian (italian ryegrass, Lolium multiflorum); assay: as above; conditions: 10 days
How it was run: as §2

[26] = tested on: blackgrass (Alopecurus myosuroides); assay: as above; conditions: 10 days
How it was run: as §2

kochia (Bassia scoparia) [27] = assay: as above; conditions: 10 days
How it was run: as §2

[28] = 62 g ai/ha, postemergence, 10 days, 0 = no effect, 100 = complete control
[29] = Postemergence, 16 g ai/ha, greenhouse 10 days, 0 no effect, 100 complete control
[30] = 62 g ai/ha, 0 = no effect, 100 = complete control

CC1(C(=O)NC2CC=C(C(=O)OCC(F)F)C2)CN(c2cc(Cl)cc(Cl)c2)C(=O)O1 (stereo not drawn) [Compound 154]
90: Pigweed, Palmer plant response rating (0-100) [4, 28] | Pigweed, Palmer plant response rating (0 to 100 scale) [4, 29] | Foxtail, Green plant response rating (0-100) [6, 28] | Wheat plant response rating (0-100) [8, 28] | Ragweed plant response rating (0-100) [11, 28] | Oat, Wild plant response rating (0-100) [13, 28] | Kochia plant response rating (0-100) (kochia (Bassia scoparia) [16]; [28]) | Kochia plant response rating (0 to 100 scale) (kochia (Bassia scoparia) [16]; [29]) | Foxtail, Green plant response rating (0-100) [18, 30] | Barnyardgrass plant response rating (0-100) [23, 30] | Kochia plant response rating (0-100) (kochia (Bassia scoparia) [27]; [30])
80: Foxtail, Green plant response rating (0 to 100 scale) [6, 29] | Ryegrass, Italian plant response rating (0-100) [14, 28] | Ryegrass, Italian plant response rating (0-100) [25, 30]
0: Blackgrass plant response rating (0-100) [15, 28] | Blackgrass plant response rating (0 to 100 scale) [15, 29] | Soybean plant response rating (soybean (Glycine max) [19]; 16 g ai/ha, 0 to 100 scale) | Ragweed plant response rating ([22]; 16 g ai/ha, 0 to 100 scale) | Oat, Wild plant response rating ([24]; 16 g ai/ha, 0 to 100 scale) | Blackgrass plant response rating ([26]; 16 g ai/ha, 0 to 100 scale) | Blackgrass plant response rating (0-100) [26, 30]
10: Wheat plant response rating ([20]; 16 g ai/ha, 0 to 100 scale)
100: Corn plant response rating (0-100) (corn (Zea mays) [9]; [28]) | Corn plant response rating (0 to 100 scale) (corn (Zea mays) [9]; [29]) | Barnyardgrass plant response rating (0-100) [12, 28] | Barnyardgrass plant response rating (0 to 100 scale) [12, 29] | Pigweed, Palmer plant response rating (0-100) [17, 30]
70: Plant response rating, Ducksalad (0 to 100 scale, 0 is no effect and 100 is complete control) [2] | Wheat plant response rating (0 to 100 scale) [8, 29] | Horseweed plant response rating (0-100) [10, 28] | Horseweed plant response rating (0 to 100 scale) [10, 29]
40: Ragweed plant response rating (0 to 100 scale) [11, 29] | Foxtail, Green plant response rating ([18]; 16 g ai/ha, 0 to 100 scale)
60: Soybean plant response rating (0-100) (soybean (Glycine max) [7]; [28]) | Soybean plant response rating (0 to 100 scale) (soybean (Glycine max) [7]; [29]) | Ryegrass, Italian plant response rating (0 to 100 scale) [14, 29] | Pigweed, Palmer plant response rating ([17]; 16 g ai/ha, 0 to 100 scale) | Wheat plant response rating (0-100) [20, 30]
50: Galium plant response rating (0 to 100 scale) [5] | Soybean plant response rating (0-100) (soybean (Glycine max) [19]; [30]) | Ragweed plant response rating (0-100) [22, 30]
20: Oat, Wild plant response rating (0 to 100 scale) [13, 29] | Corn plant response rating (corn (Zea mays) [21]; 16 g ai/ha, 0 to 100 scale) | Oat, Wild plant response rating (0-100) [24, 30] | Kochia plant response rating (kochia (Bassia scoparia) [27]; 16 g ai/ha, 0 to 100 scale)
95: Plant response rating, Sedge, Umbrella (0 to 100 scale, 0 is no effect and 100 is complete control) [1] | Plant response rating, Rice (0 to 100 scale, 0 is no effect and 100 is complete control) (rice (Oryza sativa))
98: Plant response rating, Barnyardgrass (0 to 100 scale, 0 is no effect and 100 is complete control) [3]
30: Corn plant response rating (0-100) (corn (Zea mays) [21]; [30]) | Barnyardgrass plant response rating ([23]; 16 g ai/ha, 0 to 100 scale) | Ryegrass, Italian plant response rating ([25]; 16 g ai/ha, 0 to 100 scale)
